Reference: patent publication US6881749B2, “Pyranoindazoles and their use for the treatment of glaucoma” (Alcon, Inc., priority 2001, dated 2005)

Legend:
[1] = tested on: rabbits; settings: cited from earlier work
[2] = tested on: monkey; settings: due to its α1A receptor activity; cited from earlier work
[3] = tested on: Conscious Cynomolgus Monkeys; assay: IOP response in conscious cynomolgus monkeys; format: in vivo, cynomolgus monkey; settings: dose 100 μg, 6 hours after dose

In the case of `CCCN(CCC)C1CCc2cccc(O)c2C1` (stereo not drawn) [Example 8-OH-DPAT, 8-hydroxydipropylaminotetralin], the “effect on IOP” value [1] is given as “reduces IOP”.

In the case of `COc1ccccc1N1CCN(CCCNc2c(C)c(=O)n(C)c(=O)n2C)CC1` [5-methylurapidil], the “effect on IOP” value [2] is listed as “lowers IOP”.

With `COc1cc(C[C@@H](C)N)c(OC)cc1I` [(R)-DOI] the “Percent IOP Reduction ± SEM” value [3] was 34.4 ± 4.98%.
